Measurements: patent publication US12012417B2, “N-substituted tetrahydrothienopyridine derivatives and uses thereof” (NOVARTIS AG, priority 2018, dated 2024)

How the values were obtained:
[1] = system: Dengue 2 virus MY97-10340; test: High-content imaging cell-based flavivirus immunodetection (HCl-CFI) assay, Dengue 2; conditions: Dengue virus, A549, 48 h, read-out: Dengue 2 virus MY97-10340 in A549 using HCl [Inhibitor/IC50] Qualified AC50, A549 cells, MOI 0.3, 48 h, viral E protein expression
Method in brief: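 A549 cells infected at MOI 0.3, treated with 3-fold, 10-point compound dilutions for 48 h. After paraformaldehyde fixation, viral E protein immunostained with 4G2 antibody and nuclei counterstained; imaged by high-content imaging. EC50 = concentration reducing E protein expression by 50%, from dose-response curves.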

[2] = system: Dengue 4 virus MY01-22713; test: High-content imaging cell-based flavivirus immunodetection (HCl-CFI) assay, Dengue 4; conditions: Dengue virus, A549, 48 h, read-out: Dengue 4 virus MY01-22713 in A549 using HCl [Inhibitor/IC50] Qualified AC50, A549 cells, 48 h, viral E protein expression
[3] = system: Dengue 1 virus MY97-10245; test: High-content imaging cell-based flavivirus immunodetection (HCl-CFI) assay, Dengue 1; conditions: Dengue virus, A549, 48 h, read-out: Dengue 1 virus MY97-10245 in A549 using HCl [Inhibitor/IC50] Qualified AC50
[4] = system: Dengue 3 virus MY05-34640-WT-C6/36; test: High-content imaging cell-based flavivirus immunodetection (HCl-CFI) assay, Dengue 3; conditions: Dengue virus, A549, 48 h, read-out: Dengue 3 virus MY05-34640-WT-C6/36 in A549 using HCl [Inhibitor/IC50] Qualified AC50

| SMILES | EC50 [1] [nM] | EC50 [2] [nM] | EC50 [3] [nM] | EC50 [4] [nM] |
| --- | --- | --- | --- | --- |
| Cc1ccccc1CN1CCc2c(sc(NC(=O)Cc3ccc(S(C)(=O)=O)cc3)c2C#N)C1 [Example 103, N-(3-cyano-6-(2-methylbenzyl)-4,5,6,7-tetrahydrothieno[2,3-c]pyridin-2-yl)-2-(4-(methylsulfonyl)phenyl)acetamide] | 100 to 1000 | 100 to 1000 | 100 to 1000 | 100 to 1000 |
| COc1cc(Cl)cc(CC(=O)Nc2sc3c(c2C#N)CN(Cc2cccc(F)c2)CC3)c1 [Example 39, 2 (3 chloro-5-methoxyphenyl)-N-(3-cyano-5-(3-fluorobenzyl)-4,5,6,7-tetrahydrothieno[3,2-c]pyridin-2-yl)acetamide] | > 1000 | 100 to 1000 | > 1000 | 100 to 1000 |
| CCC1Cc2sc(NC(=O)Cc3ccc(S(N)(=O)=O)cc3)c(C#N)c2CN1Cc1cccc(F)c1 (stereo not drawn) [Example 87, N-(3-cyano-6-ethyl-5-(3-fluorobenzyl)-4,5,6,7-tetrahydrothieno[3,2-c]pyridin-2-yl)-2-(4-sulfamoylphenyl)acetamide] | < 100 | < 100 | 100 to 1000 | < 100 |
| N#Cc1c(NC(=O)Cc2ccc3c(c2)CNC3)sc2c1CN(Cc1cccc(F)c1)CC2 [Example 26, N-(3-cyano-5-(3-fluorobenzyl)-4,5,6,7-tetrahydrothieno[3,2-c]pyridin-2-yl)-2-(isoindolin-5-yl)acetamide] | > 1000 | > 1000 | > 1000 | > 1000 |
| N#Cc1c(NC(=O)Cc2ccc(S(N)(=O)=O)cc2)sc2c1CCN(Cc1cccc(F)c1)CC2 [Example 124, N-(3-cyano-6-(3-fluorobenzyl)-5,6,7,8-tetrahydro-4H-thieno[2,3-d]azepin-2-yl)-2-(4-sulfamoylphenyl)acetamide] | 100 to 1000 | < 100 | 100 to 1000 | < 100 |
| N#Cc1c(NC(=O)Cc2ccc(S(N)(=O)=O)cc2)sc2c1CCN(Cc1cccc(F)c1F)C2 [Example 106, N-(3-cyano-6-(2,3-difluorobenzyl)-4,5,6,7-tetrahydrothieno[2,3-c]pyridin-2-yl)-2-(4-sulfamoylphenyl)acetamide] | < 100 | < 100 | 100 to 1000 | < 100 |
| N#Cc1c(NC(=O)Cc2ccc(S(N)(=O)=O)cc2)sc2c1CN(CC1CCCC1)CC2 [Example 4, N-(3-cyano-5-(cyclopentylmethyl)-4,5,6,7-tetrahydrothieno[3,2-c]pyridin-2-yl)-2-(4-sulfamoylphenyl)acetamide] | < 100 | < 100 | 100 to 1000 | 100 to 1000 |
| CC1Cc2sc(NC(=O)Cc3ccc(S(=O)(=O)NCC4CCCCC4)cc3)c(C#N)c2CN1CC1CCCCC1 (stereo not drawn) [Example 63, N-(3-cyano-5-(cyclohexylmethyl)-6-methyl-4,5,6,7-tetrahydrothieno[3,2-c]pyridin-2-yl)-2-(4-(N-(cyclohexylmethyl)sulfamoyl)phenyl)acetamide] | 100 to 1000 | 100 to 1000 | > 1000 | 100 to 1000 |
| N#Cc1c(NC(=O)Cc2ccc3c(c2)CCS3(=O)=O)sc2c1CN(Cc1cccc(F)c1)CC2 [Example 33, N-(3-cyano-5-(3-fluorobenzyl)-4,5,6,7-tetrahydrothieno[3,2-c]pyridin-2-yl)-2-(1,1-dioxido-2,3-dihydrobenzo[b]thiophen-5-yl)acetamide] | 100 to 1000 | < 100 | 100 to 1000 | < 100 |
| N#Cc1c(NC(=O)Cc2ccc3c(c2)S(=O)(=O)NC3)sc2c1CN(Cc1cccc(F)c1)CC2 [Example 25, N-(3-cyano-5-(3-fluorobenzyl)-4,5,6,7-tetrahydrothieno[3,2-c]pyridin-2-yl)-2-(1,1-dioxido-2,3-dihydrobenzo[d]isothiazol-6-yl)acetamide] | < 100 | < 100 | 100 to 1000 | < 100 |
| N#Cc1c(NC(=O)Cc2ccc3c(c2)CNS3(=O)=O)sc2c1CN(CC1CCCCC1)CC2 [Example 16, N-(3-cyano-5-(cyclohexylmethyl)-4,5,6,7-tetrahydrothieno[3,2-c]pyridin-2-yl)-2-(1,1-dioxido-2,3-dihydrobenzo[d]isothiazol-5-yl)acetamide] | < 100 | < 100 | 100 to 1000 | < 100 |
| N#Cc1c(NC(=O)Cc2ccc(S(N)(=O)=O)cc2)sc2c1CCN(Cc1c(F)cccc1F)C2 [Example 116, N-(3-cyano-6-(2,6-difluorobenzyl)-4,5,6,7-tetrahydrothieno[2,3-c]pyridin-2-yl)-2-(4-sulfamoylphenyl)acetamide] | < 100 | < 100 | 100 to 1000 | < 100 |
